Experimental data as given in patent US9914730B2, “Azaquinazoline inhibitors of Atypical protein Kinase C” (Ignyta, Inc., priority 2012, dated 2018).

Target: T1, full-length human PKCι (Homo sapiens, UniProt P41743)
T1 construct: Recombinant, full-length human PKCι expressed in Sf21 insect cells is also commercially available; purchased; host or cells: Sf21 insect cells
T1 sequence (P41743 1-596): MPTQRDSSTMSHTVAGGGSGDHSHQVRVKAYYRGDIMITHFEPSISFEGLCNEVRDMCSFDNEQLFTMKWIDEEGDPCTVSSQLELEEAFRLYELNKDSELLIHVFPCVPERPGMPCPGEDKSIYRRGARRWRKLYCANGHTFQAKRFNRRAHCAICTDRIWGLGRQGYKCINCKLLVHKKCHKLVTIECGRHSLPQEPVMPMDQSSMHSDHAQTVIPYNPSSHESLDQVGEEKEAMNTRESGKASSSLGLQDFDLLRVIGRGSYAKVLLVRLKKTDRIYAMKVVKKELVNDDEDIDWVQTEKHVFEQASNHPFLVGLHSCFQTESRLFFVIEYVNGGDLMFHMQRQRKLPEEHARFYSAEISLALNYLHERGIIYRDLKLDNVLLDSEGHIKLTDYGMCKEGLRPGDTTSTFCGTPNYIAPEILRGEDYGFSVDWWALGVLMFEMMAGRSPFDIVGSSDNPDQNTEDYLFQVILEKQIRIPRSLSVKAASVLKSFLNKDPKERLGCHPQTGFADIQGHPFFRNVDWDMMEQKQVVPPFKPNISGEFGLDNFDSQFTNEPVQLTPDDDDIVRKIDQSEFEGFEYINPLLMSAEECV
Assay: PKCι IC50 IMAP assay, full-length PKCι at 150 μM ATP
Type: biochemical
Conditions: read-out: IC50 in IMAP assay against full length PKCi at 150 μM ATP
Summary of the method: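 Full-length hPKCι (Sf21) ~15 pM; 5FAM-peptide 100 nM; ATP 150 μM (5× KM^APP); tris pH7.5/MgCl2/EGTA/DTT/Triton, 4% DMSO; 60 min RT; IMAP stop, 2 h; FP 485/530 nm; IC50 from % inhibition curves.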

Which IC50 does the source give for `Fc1cccc(F)c1Nc1cc(-c2nc(SC3CCNCC3)c3c(C4CC4)cncc3n2)ccn1` [Example 791, {4-[5-Cyclopropyl-4-(piperidin-4-ylsulfanyl)-pyrido[3,4-d]pyrimidin-2-yl]-pyridin-2-yl}-(2,6-difluoro-phenyl)-amine] here?
The IC50 was under 100 nM.

With `Fc1cccc(Nc2cc(-c3nc(N4CCNCC4)c4c(C5CC5)cncc4n3)ccn2)n1` [Example 483, [4-(5-Cyclopropyl-4-piperazin-1-yl-pyrido[3,4-d]pyrimidin-2-yl)-pyridin-2-yl]-(6-fluoro-pyridin-2-yl)-amine] as the molecule, how does the IC50 read?
The IC50 was under 100 nM.

How did the IC50 turn out when `FC1(F)CCC(Nc2cc(-c3nc(N4CCNCC4)c4c(C5CC5)cncc4n3)ccn2)CC1` [Example 510, [4-(5-Cyclopropyl-4-piperazin-1-yl-pyrido[3,4-d]pyrimidin-2-yl)-pyridin-2-yl]-(4,4-difluoro-cyclohexyl)-amine] was run?
Its IC50 is under 100 nM.

`COc1cncc2nc(-c3ccncc3)nc(N3CCN[C@@H](C(O)c4ccc(F)cc4)C3)c12` (mixture of isomers) [Example 77, (4-fluorophenyl) [(2R)-4-[5-methoxy-2-(pyridin-4-yl)-pyrido[3,4-d]-pyrimidin-4-yl]-piperazin-2-yl]-methanol] was tested. Which IC50 did it give?
Its IC50 is under 100 nM.

With `COc1cncc2nc(-c3ccnc(Nc4cc(C#N)ccn4)c3)nc(N[C@@H]3CCNC3)c12` [Example 332, 2-{4-[5-Methoxy-4-((R)-pyrrolidin-3-ylamino)-pyrido[3,4-d]pyrimidin-2-yl]-pyridin-2-ylamino}-isonicotinonitrile] as the molecule, how does the IC50 read?
The IC50 was under 100 nM.

How did the IC50 turn out when `C[C@@H](Nc1cc(-c2nc(N3CCNCC3)c3c(C4CC4)cncc3n2)ccn1)c1ccc2ccccc2c1` [Example 2160, [4-(5-Cyclopropyl-4-piperazin-1-yl-pyrido[3,4-d]pyrimidin-2-yl)-pyridin-2-yl]-((R)-1-naphthalen-2-yl-ethyl)-amine] was run?
The IC50 was under 100 nM.

Which IC50 does the source give for `Cc1cc2c(-c3nc(N4CCNCC4)c4c(C5CC5)cncc4n3)ccnc2[nH]1` [Example 1217, 5-Cyclopropyl-2-(2-methyl-1H-pyrrolo[2,3-b]pyridin-4-yl)-4-piperazin-1-yl-pyrido[3,4-d]pyrimidine] here?
The IC50 was under 100 nM.

`N#Cc1ccc(Nc2cc(-c3nc(N[C@@H]4CCNC4)c4ccncc4n3)ccn2)nc1` [Example 341, 6-{4-[4-((R)-Pyrrolidin-3-ylamino)-pyrido[3,4-d]pyrimidin-2-yl]-pyridin-2-ylamino}-nicotinonitrile] was tested. Which IC50 did it give?
The IC50 was under 100 nM.

`CNC1CCCN(c2nc(-c3ccnc(Nc4ncc(F)cc4F)c3)nc3cncc(C4CC4)c23)C1` (stereo not drawn) [Example 2205, {4-[5-Cyclopropyl-4-(3-methylamino-piperidin-1-yl)-pyrido[3,4-d]pyrimidin-2-yl]-pyridin-2-yl}-(3,5-difluoro-pyridin-2-yl)-amine] was tested. Which IC50 did it give?
The IC50 was under 100 nM.

Which IC50 does the source give for `NCCNc1nc(-c2ccncc2)nc2cnccc12` [Example 3, N-(2-aminoethyl)-2-(pyridin-4-yl)-pyrido[3,4-d]-pyrimidin-4-amine] here?
The IC50 was 10000 to 40000 nM.

With `Clc1nccc2c(N3CCN[C@@H](Cc4ccccc4)C3)nc(-c3ccncc3)nc12` [Example 68, (3S)-3-benzyl-1-[8-chloro-2-(pyridin-4-yl)pyrido[3,4-d]-pyrimidin-4-yl]-piperazine] as the molecule, how does the IC50 read?
The IC50 was 100 to 1000 nM.

`CC[C@H]1CN(c2nc(-c3ccncc3)nc3cnccc23)CCN1` [Example 61, (3S)-3-ethyl-1-[2-(pyridin-4-yl)-pyrido[3,4-d]-pyrimidin-4-yl]-piperazine] was tested. Which IC50 did it give?
The IC50 was 1000 to 10000 nM.

How did the IC50 turn out when `CS(=O)(=O)C[C@H]1CN(c2nc(-c3ccnc(Nc4c(F)cccc4F)c3)nc3cncc(C4CC4)c23)CCN1` [Example 772, {4-[5-Cyclopropyl-4-((R)-3-methanesulfonyl-methyl-piperazin-1-yl)-pyrido[3,4-d]pyrimidin-2-yl]-pyridin-2-yl}-(2,6-difluoro-phenyl)-amine] was run?
Its IC50 is 100 to 1000 nM.

For `CC(C)N1CCC(N(C)c2nc(-c3ccnc(Nc4c(F)cccc4F)c3)nc3cncc(C4CC4)c23)CC1` [Example 2115, {5-Cyclopropyl-2-[2-(2,6-difluoro-phenylamino)-pyridin-4-yl]-pyrido[3,4-d]pyrimidin-4-yl}-(1-isopropyl-piperidin-4-yl)-methyl-amine], which IC50 is on record?
The IC50 was under 100 nM.

`FC(F)(F)c1cc2c(-c3nc(N4CCNCC4)c4c(C5CC5)cnc(Cl)c4n3)ccnc2[nH]1` [Example 2071, 8-Chloro-5-cyclopropyl-4-piperazin-1-yl-2-(2-trifluoromethyl-1H-pyrrolo[2,3-b]pyridin-4-yl)-pyrido[3,4-d]pyrimidine] was tested. Which IC50 did it give?
Its IC50 is under 100 nM.

`O=C(NCCO)C1CCN(c2nc(-c3ccnc(Nc4c(F)cccc4F)c3)nc3cncc(C4CC4)c23)CC1` [Example 685, 1-{5-Cyclopropyl-2-[2-(2,6-difluoro-phenylamino)-pyridin-4-yl]-pyrido[3,4-d]pyrimidin-4-yl}-piperidine-4-carboxylic acid (2-hydroxy-ethyl)-amide] was tested. Which IC50 did it give?
Its IC50 is 100 to 1000 nM.

Which IC50 does the source give for `c1cc(-c2nc(N3CCNCC3)c3c(C4CC4)cncc3n2)cc(NC2CCOCC2)n1` [Example 283, [4-(5-Cyclopropyl-4-piperazin-1-yl-pyrido[3,4-d]pyrimidin-2-yl)-pyridin-2-yl]-(tetrahydro-pyran-4-yl)-amine] here?
The IC50 was under 100 nM.

How did the IC50 turn out when `COc1cncc2nc(-c3ccnc(NC(=O)Cc4cccnc4)c3)nc(N3CCNCC3)c12` [Example 399, N-[4-(5-Methoxy-4-piperazin-1-yl-pyrido[3,4-d]pyrimidin-2-yl)-pyridin-2-yl]-2-pyridin-3-yl-acetamide] was run?
The IC50 was under 100 nM.

For `Clc1cnc(-c2cc[nH]n2)c2nc(-c3ccncc3)nc(N3CCNCC3)c12` [Example 141, 5-Chloro-4-piperazin-1-yl-8-(1H-pyrazol-3-yl)-2-pyridin-4-yl-pyrido[3,4d]pyrimidine], which IC50 is on record?
The IC50 was 100 to 1000 nM.

`COc1cncc2nc(-c3ccncc3)nc(N3CCN[C@@H](C(F)c4ccccc4)C3)c12` (stereo partly drawn) [Example 74, (3R)-3-[fluoro(phenyl)-methyl]-1-[5-methoxy-2-(pyridin-4-yl)-pyrido[3,4-d]-pyrimidin-4-yl]-piperazine] was tested. Which IC50 did it give?
The IC50 was under 100 nM.

`Fc1cc(F)c(Nc2cc(-c3nc(N4CCNCC4)c4c(C5CC5)cnc(Cl)c4n3)ccn2)nc1F` [Example 2178, [4-(8-Chloro-5-cyclopropyl-4-piperazin-1-yl-pyrido[3,4-d]pyrimidin-2-yl)-pyridin-2-yl]-(3,5,6,-trifluoro-pyridin-2-yl)-amine] was tested. Which IC50 did it give?
Its IC50 is under 100 nM.

Which IC50 does the source give for `COc1cncc2nc(-c3ccnc(NC(=O)[C@H](C)c4ccccc4)c3)nc(N[C@@H]3CCNC3)c12` [Example 406, (R)-N-{4-[5-Methoxy-4-((R)-pyrrolidin-3-ylamino)-pyrido[3,4-d]pyrimidin-2-yl]-pyridin-2-yl}-2-phenyl-propionamide] here?
Its IC50 is 100 to 1000 nM.

How did the IC50 turn out when `FC(F)(F)[C@H]1CN(c2nc(-c3ccnc4[nH]ccc34)nc3cncc(C4CC4)c23)CCN1` [Example 1213, 5-Cyclopropyl-2-(1H-pyrrolo[2,3-b]pyridin-4-yl)-4-((R)-3-trifluoromethyl-piperazin-1-yl)-pyrido[3,4-d]pyrimidine] was run?
The IC50 was under 100 nM.

With `FC(F)(F)c1cccc(Nc2cc(-c3nc(N4CCNCC4)c4c(C5CC5)cncc4n3)ccn2)c1` [Example 646, [4-(5-Cyclopropyl-4-piperazin-1-yl-pyrido[3,4-d]pyrimidin-2-yl)-pyridin-2-yl]-(3-trifluoromethyl-phenyl)-amine] as the molecule, how does the IC50 read?
Its IC50 is under 100 nM.

With `OCCN1CCN(c2nc(-c3ccncc3)nc3cnccc23)CC1` [Example 34, 2-{4-[2-(pyridin-4-yl)pyrido[3,4-d]-pyrimidin-4-yl]-piperazin-1-yl}-ethan-1-ol] as the molecule, how does the IC50 read?
The IC50 was 10000 to 40000 nM.

With `FC[C@H]1CN(c2nc(-c3ccnc(Nc4cccnc4F)c3)nc3cncc(C4CC4)c23)CCN1` [Example 531, {4-[5-Cyclopropyl-4-((R)-3-fluoromethyl-piperazin-1-yl)-pyrido[3,4-d]-pyrimidin-2-yl]-pyridin-2-yl}-(2-fluoro-pyridin-3-yl)-amine] as the molecule, how does the IC50 read?
Its IC50 is under 100 nM.

Which IC50 does the source give for `FC(F)(F)[C@@H]1CN(c2nc(-c3ccnc4[nH]ccc34)nc3cncc(C4CC4)c23)CCN1` [Example 1214, 5-Cyclopropyl-2-(1H-pyrrolo[2,3-b]pyridin-4-yl)-4-((S)-3-trifluoromethyl-piperazin-1-yl)-pyrido[3,4-d]pyrimidine] here?
Its IC50 is under 100 nM.

With `COc1cncc2nc(-c3ccnc(NC(C)=O)c3)nc(N3CCC(O)CC3)c12` [Example 215, N-{4-[4-(4-Hydroxy-piperidin-1-yl)-5-methoxy-pyrido[3,4-d]pyrimidin-2-yl]-pyridin-2-yl}-acetamide] as the molecule, how does the IC50 read?
The IC50 was 100 to 1000 nM.

`c1cc2c(N[C@@H]3CCNC3)nc(-c3ccnc4[nH]ccc34)nc2cn1` [Example 1208, (R)-Pyrrolidin-3-yl-[2-(1H-pyrrolo[2,3-b]pyridin-4-yl)-pyrido[3,4-d]pyrimidin-4-yl]-amine] was tested. Which IC50 did it give?
Its IC50 is 100 to 1000 nM.

Which IC50 does the source give for `Oc1nc(-c2ccnc(Nc3cccc(N4CCNCC4)c3)c2)nc2cnccc12` [Example 497, 2-[2-(3-piperazin-1-yl-phenylamino)-pyridin-4-yl]-pyrido[3,4-d]pyrimidin-4-ol] here?
Its IC50 is 10000 to 40000 nM.
